Results: the supplement of paper PMC11451515

What was measured:
Settings in all cases: 48 h
P12-Ichikawa [1] = experiment: AUC of viability dose-response curve (% viability x log10 dose units); higher = less sensitive
Outline: (§1)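 Library compounds in DMSO were applied for 48 h at 37°C at 11 threefold doses (47 μM to 0.79 nM) to medium-adapted leukemia cells in 1536-well plates holding 500 or 1000 cells/well. Luminescence from CellTiter-Glo One was normalised plate by plate against DMSO and cell-free wells. Area under the curve came from trapezoidal integration of a log-logistic fit, after scaling curves that rose above full viability and discarding those that failed quality control. The fit had four parameters and used log10 doses.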

NOMO1 [2] = experiment: as above
Outline: as §1

SEM cells [3] = experiment: cell viability relative to DMSO control; higher = less cytotoxic
Outline: (§2)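 Viability values are per-plate percentages of DMSO wells, with background from cell-free wells. Library compounds in DMSO were pin-dosed, in an 11-point threefold series from 47 μM to 0.79 nM, onto NOMO1 or SEM (500 cells/well) or P12-Ichikawa (1000 cells/well) leukemia cells in 1536-well plates (5 μl). Those cells had been adapted for at least four passages in each medium, and CellTiter-Glo One luminescence was read after 48 h at 37°C.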

SEM cells [4] = experiment: AUC of viability dose-response curve (% viability x log10 dose units); higher = less sensitive
Outline: as §1

P12-Ichikawa [5] = experiment: cell viability relative to DMSO control; higher = less cytotoxic
Outline: as §2

NOMO1 [6] = experiment: as above
Outline: as §2

CC1=C(CC/C(C)=C/CCC2=CCC(C3=CC(=O)OC3O)OC2O)C(C)(C)CCC1 (centres undefined)
AUC of viability dose-response curve
Settings	HPLM + 10% dialyzed FBS	RPMI 5 mM glucose + 10% FBS	RPMI 5 mM glucose + 10% dialyzed FBS
NOMO1 [2]	434	469	466
P12-Ichikawa [1]	457	434	443

cell viability [%], SEM cells [3]
Settings	HPLM + 10% dialyzed FBS	RPMI 5 mM glucose + 10% dialyzed FBS
0.000781 µM	115	121
0.00234 µM	129	124
0.00702 µM	114	119
0.0211 µM	129	112
0.0632 µM	46.6	27.5
0.19 µM	125	132
0.569 µM	138	148
1.71 µM	127	115
5.12 µM	71.4	54
15.4 µM	107	140
46.1 µM	106	129

O=C1CC[C@@]2(O)[C@H]3Cc4ccc(O)c5c4[C@@]2(CCN3CC2CC2)[C@H]1O5
AUC of viability dose-response curve
Settings	NOMO1 [2]	P12-Ichikawa [1]	SEM cells [4]
HPLM + 10% dialyzed FBS	419	459	469
RPMI 5 mM glucose + 10% FBS	411	474	451
RPMI 5 mM glucose + 10% dialyzed FBS	434	469	463

OC(COC1=C2C(=O)\C=C(/OC2=CC=C1)C([O-])=O)COC3=C4C(=O)\C=C(/OC4=CC=C3)C([O-])=O
NOMO1 [2]
Settings	AUC of viability dose-response curve
HPLM + 10% dialyzed FBS	435
RPMI 5 mM glucose + 10% FBS	368
RPMI 5 mM glucose + 10% dialyzed FBS	394

cell viability [%]
Settings	NOMO1 [6]	P12-Ichikawa [5]	SEM cells [3]
HPLM + 10% dialyzed FBS, 0.000781 µM	95.5	84.8	65.3
HPLM + 10% dialyzed FBS, 0.00234 µM	86.8	80.9	72.3
HPLM + 10% dialyzed FBS, 0.00702 µM	93.7	87.4	76
HPLM + 10% dialyzed FBS, 0.0211 µM	94.2	79.2	73.9
HPLM + 10% dialyzed FBS, 0.0632 µM	94.8	90.7	77.7
HPLM + 10% dialyzed FBS, 0.19 µM	80.8	77.2	43.5
HPLM + 10% dialyzed FBS, 0.569 µM	96.3	88.4	80.8
HPLM + 10% dialyzed FBS, 1.71 µM	86.1	90.1	88
HPLM + 10% dialyzed FBS, 5.12 µM	86.3	92	95.9
HPLM + 10% dialyzed FBS, 15.4 µM	94.5	86.7	73.1
HPLM + 10% dialyzed FBS, 46.1 µM	93	90.4	96.8
RPMI 5 mM glucose + 10% FBS, 0.000781 µM	72.6	98.9	71
RPMI 5 mM glucose + 10% FBS, 0.00234 µM	74.5	94.9	83.6
RPMI 5 mM glucose + 10% FBS, 0.00702 µM	74.7	97	85.6
RPMI 5 mM glucose + 10% FBS, 0.0211 µM	76.4	94.2	84.3
RPMI 5 mM glucose + 10% FBS, 0.0632 µM	80.4	103	86.6
RPMI 5 mM glucose + 10% FBS, 0.19 µM	74.5	89	20.2
RPMI 5 mM glucose + 10% FBS, 0.569 µM	74.8	87.3	65.6
RPMI 5 mM glucose + 10% FBS, 1.71 µM	83.3	89.3	74.7
RPMI 5 mM glucose + 10% FBS, 5.12 µM	71	86.9	99.4
RPMI 5 mM glucose + 10% FBS, 15.4 µM	80.3	83.2	65.9
RPMI 5 mM glucose + 10% FBS, 46.1 µM	84.8	89.5	90.9
RPMI 5 mM glucose + 10% dialyzed FBS, 0.000781 µM	75.4	75.3	72.1
RPMI 5 mM glucose + 10% dialyzed FBS, 0.00234 µM	82	78.4	74.5
RPMI 5 mM glucose + 10% dialyzed FBS, 0.00702 µM	73.3	84.8	76.6
RPMI 5 mM glucose + 10% dialyzed FBS, 0.0211 µM	76.4	82.1	73.5
RPMI 5 mM glucose + 10% dialyzed FBS, 0.0632 µM	86	83.1	91.4
RPMI 5 mM glucose + 10% dialyzed FBS, 0.19 µM	72.7	76.7	64
RPMI 5 mM glucose + 10% dialyzed FBS, 0.569 µM	89.1	81.4	82.6
RPMI 5 mM glucose + 10% dialyzed FBS, 1.71 µM	88.6	87.8	95.1
RPMI 5 mM glucose + 10% dialyzed FBS, 5.12 µM	87.9	73.4	102
RPMI 5 mM glucose + 10% dialyzed FBS, 15.4 µM	86	81.3	76.9
RPMI 5 mM glucose + 10% dialyzed FBS, 46.1 µM	90.4	80.3	97.7
